The conditions of data set [1]: single substitution of Ile for Glu at position 4, versus unmodified subtilin; cited from earlier work.
The subject of a further data set is Staphylococcus aureus. The data set is described as follows: Deferred antagonism assay on trypticase soy-yeast agar plates. The data set is classed as cell-based. Also on record: key: S, sensitive (zone radius >2 mm); SS, zone radius >S. As to conditions: zone of inhibition.
The test system of the next data set is Streptococcus lactis. Described as above. The settings on record: zone of inhibition. The data set is classed as cell-based.
Another data set relates to trypsin. Kind of data set: Sensitivity to trypsin (residual mutacin activity). The data set is classed as physicochemical. How it is done:
Sensitivity to trypsin (Sigma Chemical Co., St. Louis, Mo.) was determined according to the manufacturer's recommendation by incubating purified mutacin (4096 BU) in 50 ml of 50 mM sodium phosphate buffer pH 7.5 with trypsin (2 mg) at room temperature. Samples were analyzed for residual mutacin activity at various time intervals.
(§1) Mutacin was sensitive to trypsin. After 10 min incubation with the protease, no activity in sample was detected. Control samples without trypsin retained their full activity under identical conditions. Mutacin was thermostable as analyzed by residual activity after incubation at 80° C. for 30 min, and by incubating at 100° C. in loading buffer.

Another data set relates to Streptococcus salivarius. The data set is described as follows: Deferred antagonism assay on trypticase soy-yeast agar plates. The data set is classed as cell-based. The settings on record: zone of inhibition.
In another data set the test system is Streptococcus mutans 130. The description is as above. The settings on record: zone of inhibition. The data set is classed as cell-based.
The test system of a further data set is Streptococcus sanguis. The description is as above. The data set is classed as cell-based. As to conditions: zone of inhibition. How it is done: (§2) Mutacin production was detected by deferred antagonism technique on trypticase soy-yeast agar (TSAY) using S. sobrinus OMZ176, S. mutans 10449, or S. sanguis Ny101 as sensitive indicators (Parrot, et al., 1990). Mutacin present in liquid culture was quantified by spotting […] of 2-fold dilutions of mutacin in phosphate buffered saline (PBS) onto the surface of TSAY overlaid with indicator strain as described. Spots were allowed to dry for 1 h, then the plates were incubated anaerobically for 24 h. The lowest titer yielding a zone of inhibition having clear edges was defined as one bacteriocin unit (BU).
(§3) Biological activity may also be measured by overlaying thin layer chromatography or SDS-PAGE gels with an indicator strain.

In a further data set the test system is Streptococcus mutans WT. The description is as above. The data set is classed as cell-based. The settings on record: zone of inhibition. As for the experimental part: as §2, §3
The test system of data set [2] is Streptococcus mutans GS-5. Described as above. The data set is classed as cell-based. As to conditions: zone of inhibition.
In another data set the test system is Streptococcus pyogenes. Described as above. Further details: key: S, sensitive (zone radius >2 mm); SS, zone radius >S. The settings on record: zone of inhibition. The data set is classed as cell-based.
For the next data set, the system named is Bacillus subtilis 1687. The description is as above. The data set is classed as cell-based. As to conditions: zone of inhibition.
The next data set concerns Streptococcus faecium. Described as above. The data set is classed as cell-based. As to conditions: zone of inhibition.
The next data set relates to Streptococcus mutans 159. Described as above. The data set is classed as cell-based. The settings on record: zone of inhibition.
A further data set has as its system Mycobacterium phlei. Described as above. The data set is classed as cell-based. As to conditions: zone of inhibition.
The subject of data set [3] is Streptococcus faecalis 78.4. Described as above. As to conditions: zone of inhibition. The data set is classed as cell-based.
The subject of the next data set is Streptococcus mitis. Described as above. The data set is classed as cell-based. As to conditions: zone of inhibition.
The nature of data set [4]: Isoelectric point (electrophoretic mobility / isoelectric focusing). The data set is classed as physicochemical. The settings on record: based on electrophoretic mobility.
For another data set, the system named is Clostridium sporogenes. The data set is described as follows: Deferred antagonism assay on trypticase soy-yeast agar plates. The data set is classed as cell-based. As to conditions: Clostridium sporogenes (ATCC 19606); zone of inhibition.
The next data set concerns Streptococcus rattus. The description is as above. The data set is classed as cell-based. The settings on record: zone of inhibition.
The test system of another data set is Streptococcus pneumoniae. The description is as above. The data set is classed as cell-based. Further details: key: S, sensitive (zone radius >2 mm); SS, zone radius >S. As to conditions: zone of inhibition.
Data set [5] is classed as physicochemical.
Description: (§4) The mutacins of the present invention have an apparent Mr of about 2,500 Da as determined by high performance liquid chromatography using a size-exclusion column. This is a useful defining parameter which may be determined using the routinely employed technique of column chromatography. However, the highly purified mutacins may be found to have a slightly different exact molecular weights, depending on the technique used, such as the molecular weight of 3,244.64±1.15 Da determined by ion spray mass spectroscopy for the T8-derived mutacin as determined from the m/z values, wherein z is equal to 2, 3, or 4 for m / z values 1623, 1083 and 812, respectively (see FIG. 4). Furthermore, the mutacin is thermostable, as measured by, e.g., incubating an agar plug at 100° C. for 30 minutes and quantitating bacteriocidal activity. The mutacin is stable over a pH range of 4-10, as measured by incubating the purified mutacin for 24 hours in appropriate 0.1 M buffers, e.g., such as acetate, phosphate or glycine buffers, at room temperature, and tested for bacteriocidal activity.
as §1

Data set [6] is classed as physicochemical.
Description: as §4
Purified mutacin was mixed with different 0.1 M buffers in range pH 4-11 (sodium acetate pH 4-6; sodium phosphate pH 7-8; glycine-NaOH pH 8-11). After one or 24 h incubation at room temperature, residual mutacin activity was assayed using the spot test described above. […]
This is another data set of the same source.

The next data set has as its system Actinomyces viscosus. Kind of data set: Deferred antagonism assay on trypticase soy-yeast agar plates. The data set is classed as cell-based. The settings on record: zone of inhibition.
The subject of data set [7] is S. sobrinus OMZ176, S. mutans 10449, or S. sanguis Ny101 as sensitive indicators. The data set is described as follows: Mutacin assay: spot test of 2-fold dilutions, bacteriocin units (BU). The data set is classed as cell-based. The settings on record: bacteriocin units per mg total protein, at stages of purification. The text has this:
The isolated antimicrobial mutacin polypeptides of the invention are generally characterized as having substantial bacteriocidal activity. As used herein the term “substantial bacteriocidal activity” describes significant mutacin-directed bacterial killing, as measured by any one of a variety of assays. Bacteriocidal activity may be advantageously examined and quantified by the deferred antagonism technique on trypticase soy-yeast agar (TSAY) using S. sobrinus OMZ176 or S. sanguis Ny101 as sensitive indicators (Parrot, et al., 1990). A unit of bacteriocidal activity (BU), present in liquid culture, is described as the lowest titer yielding a clear lytic-like zone of inhibition having clear edges and greater than 10 mm in diameter. Chikindas et al. describes arbitrary units (AU) of activity, which are essentially identical to bacteriocidal activity units. […]
Mutacin production was detected by deferred antagonism technique on trypticase soy-yeast agar (TSAY) using S. sobrinus OMZ176, S. mutans 10449, or S. sanguis Ny101 as sensitive indicators (Parrot, et al., 1990). Mutacin present in liquid culture was quantified by spotting […] of 2-fold dilutions of mutacin in phosphate buffered saline (PBS) onto the surface of TSAY overlaid with indicator strain as described. […]

Read-outs that look alike come from different tables or passages of the source. No end group written: not given here.

As to `C=C1NC(=O)CC[C@@H](C(=O)O)NC(=O)[C@H](NC(=O)[C@H](CCCCN)NC(=O)[C@@H](N)Cc2c[nH]c3ccccc23)CSC[C@@H](C(=O)N[C@@H]2C(=O)N3CCC[C@H]3C(=O)NCC(=O)N[C@H](C(=O)N[C@H](C(=O)N[C@@H]3C(=O)NCC(=O)N[C@@H](C)C(=O)N[C@@H](CC(C)C)C(=O)N[C@@H](CCC(N)=O)C(=O)N/C(=C/C)C(=O)N[C@H](C(=O)N[C@@H](Cc4ccccc4)C(=O)N[C@@H](CC(C)C)C(=O)N[C@@H](CCC(N)=O)C(=O)N[C@@H]4C(=O)N[C@@H](CC(C)C)C(=O)N[C@H]5C(=O)N[C@@H](CSC4C)C(=O)NC(=O)[C@H](CC(N)=O)N[C@H](C(=O)N[C@@H](CCCCN)C(=O)N[C@H](C(=O)NC(=C)C(=O)N[C@@H](CCCCN)C(=O)O)[C@@H](C)CC)CSC5C)CSC3C)C(C)C)CSC2C)N[C@@H](CC(C)C)C(=O)NC1=O` (stereo partly shown) [subtilin], in data set [1], the “increase of the biological half-life” value was 57 fold.

As for “Mutacin: lanthionine-containing polypeptide antibiotic (lantibiotic) purified from Streptococcus mutans T8 or UA96; N-terminus Asn Arg Trp Trp Gln Gly Val Val (NRWWQGVVPTVSYECRMNSWQHVFTCC; cysteine pairing not given here; also: lanthionine-containing lantibiotic, lanthionines not placed; UniProt O54329 27-53, looked up)”, the Sensitivity result with Staphylococcus aureus is listed as “SS”; in the data set on Streptococcus lactis it was “S (S, sensitive (zone radius >2 mm))”; with Streptococcus salivarius, “S (S, sensitive (zone radius >2 mm))”; in the data set on Streptococcus mutans 130, “S (S, sensitive (zone radius >2 mm))”; in the data set on Streptococcus sanguis, “S (S, sensitive (zone radius >2 mm))”; in the data set with Streptococcus mutans WT, “S (S, sensitive (zone radius >2 mm))”. Besides, the Sensitivity entry in [2] is “S (S, sensitive (zone radius >2 mm))”; in the data set with Streptococcus pyogenes, “SS”; in the data set with Bacillus subtilis 1687 it was “S (S, sensitive (zone radius >2 mm))”; with Streptococcus faecium, “S (S, sensitive (zone radius >2 mm))”; with Streptococcus mutans 159 it was “S (S, sensitive (zone radius >2 mm))”; in the data set on Mycobacterium phlei, “S (S, sensitive (zone radius >2 mm))”. For the same compound, the Sensitivity result in data set [3] was “S (S, sensitive (zone radius >2 mm))”; in the data set on Streptococcus mitis, “S (S, sensitive (zone radius >2 mm))”; in the data set with Clostridium sporogenes, “S (S, sensitive (zone radius >2 mm))”; with Streptococcus rattus, “S (S, sensitive (zone radius >2 mm))”; in the data set on Streptococcus pneumoniae, “SS”; in the data set on Actinomyces viscosus, “S (S, sensitive (zone radius >2 mm))”. The “Trypsin (sensitivity)” value in the data set with trypsin is “sensitive”. Also, the “residual mutacin activity after incubation with trypsin” value in the data set on trypsin (10 min, 4096 BU mutacin, trypsin 2 mg, 50 mM sodium phosphate pH 7.5, room temperature) is reported as “no activity”. Also, the “pI (isoelectric point)” value in data set [4] is on record as “≧8.4 (based on electrophoretic”. In addition, the “Temperature (thermostable)” value in data set [5] is “thermostable > 100 °C”; in data set [5] (listed as mutacin) it was “up to 100 °C”. The “thermostability, residual activity after incubation” value in data set [5] is on record as “thermostable”. The “pH (stable range)” value in [6] (listed as mutacin) is listed as 4-10. In data set [6] (pH 11, 0.1 M glycine-NaOH, one or 24 h at room temperature, spot test), the “residual activity after incubation at pH 11” value was “about 50%”.

Consider “Water precipitate from 8M urea: final preparation of mutacin, solubilized in 8 M urea and precipitated with water; over 90% pure (NRWWQGVVPTVSYECRMNSWQHVFTCC; cysteine pairing not given here; also: lanthionine-containing lantibiotic, lanthionines not placed; UniProt O54329 27-53, looked up)”, for which, in [7], the Spec. activity is listed as 150,187 BU/mg.

These data come from patent US6521596B1, “Lanthionine antibiotic compositions and method” (priority 1994, dated 2003).
